Target: T1, human renal renin (Homo sapiens, UniProt P00797)
T1 construct: human renal renin, free from acid proteolytic activity; from tissue
T1 sequence (P00797 67-406): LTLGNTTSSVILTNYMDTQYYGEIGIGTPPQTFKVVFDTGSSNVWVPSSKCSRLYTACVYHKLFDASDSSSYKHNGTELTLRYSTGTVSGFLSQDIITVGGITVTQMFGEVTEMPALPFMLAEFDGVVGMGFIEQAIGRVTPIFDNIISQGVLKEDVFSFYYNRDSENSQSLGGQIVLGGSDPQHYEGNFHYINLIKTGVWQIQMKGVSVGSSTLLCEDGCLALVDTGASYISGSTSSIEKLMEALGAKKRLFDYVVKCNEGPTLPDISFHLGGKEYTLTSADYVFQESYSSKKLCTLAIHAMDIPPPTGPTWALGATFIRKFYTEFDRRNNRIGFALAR
Test: Inhibition of human renal renin in vitro (angiotensin I formed, radioimmunoassay)
Format: biochemical
Settings: human angiotensinogen substrate, 37 degrees C., pH 6.0
Method: The novel compounds of the present invention are also useful for treating congestive heart failure. […] At the end of the incubation, the amount of angiotensin I formed is measured by radioimmunoassay and the molar concentration required to cause 50% inhibition, expressed as the IC50, is calculated.

Structure (SMILES) | IC50
CCN1C[C@@H]([C@H](O)[C@H](CC2CCCCC2)NC(=O)[C@H](Cc2cnc[nH]2)N2C[C@H](Cc3ccccc3)N(CC(C)C)C2=O)OC1=O [Example 119, (2S)-2-(Imidazol-4-ylmethyl)-2-(3-isobutyl-(4S)-phenylmethylimidazolidin-2-one-1-yl)acetic Acid Amide of (2'S,1'R,5S)-3-Ethyl-5-(1'-hydroxy-2'-amino-3'-cyclohexylpropyl)oxazolidin-2-one] | 150 nM
CC(C)C[C@H](O)[C@H](O)[C@H](CC1CCCCC1)NC(=O)[C@H](Cc1c[nH]cn1)N1C[C@H](Cc2ccccc2)NC1=O [Example 120, (2S)-2-(Imidazol-4-ylmethyl)-2-((4S)-phenylmethylimidazolidin-2-one-1-yl)acetic Acid Amide of (2S)-Amino-1-cyclohexyl-3(R),4(S)-dihydroxy-6-methylheptane] | 650 nM
CC(C)C[C@H](O)[C@H](O)[C@H](CC1CCCCC1)NC(=O)[C@H](Cc1c[nH]cn1)N1CC[C@@H](Cc2ccccc2)C1=O [Example 121, (2S)-2-(Imidazol-4-ylmethyl)-2-((3R)-phenylmethyl-2-oxopyrrolidin-1-yl)acetic Acid Amide of (2S)-Amino-1-cyclohexyl-3(R),4(S)-dihydroxy-6-methylheptane] | 430 nM
CC(C)C[C@H](O)[C@H](O)[C@H](CC1CCCCC1)NC(=O)[C@H](Cc1c[nH]cn1)N1C[C@H](Cc2ccccc2)CC1=O [Example 122, (2S)-2-(Imidazol-4-ylmethyl)-2-((4R)-phenylmethyl-2-oxopyrrolidin-1-yl)acetic Acid Amide of (2S)-Amino-1-cyclohexyl-3(R),4(S)-dihydroxy-6-methylheptane] | 580 nM
CCCCNC(=O)[C@H](C[C@H](O)[C@H](CC1CCCCC1)NC(=O)C(Cc1cscn1)N1CCN(C(=O)N2CCOCC2)[C@H](Cc2ccccc2)C1=O)C(C)C (stereo partly drawn) [Example 129, 3-(3-Thiazolyl)-2-(3R-benzyl-4-N-morpholin-1-yl-carbonyl-2-keto-piperazin-1-yl)-propionic acid Amide of Butyl 5(S)-amino-6-cyclohexyl-4(S)-hydroxy-2(R)-isopropylhexan-amide] | 1.3 nM
CCCCNC(=O)[C@H](C[C@H](O)[C@H](CC1CCCCC1)NC(=O)C(Cc1cscn1)N1CCN(S(=O)(=O)c2ccc(C)cc2)[C@H](Cc2ccccc2)C1=O)C(C)C (stereo partly drawn) [Example 130, 3-(4-Thiazolyl)-2-(3R-benzyl-4-N-p-toluene-sulfonyl-2-keto-piperazin-1-yl)-propionic acid Amide of Butyl 5(S)-amino-6-cyclohexyl-4(S)-hydroxy-2(R)-isopropylhexan-amide] | 0.73 nM
Cc1ccc(S(=O)(=O)N2CCN(C(Cc3cscn3)C(=O)N[C@@H](CC3CCCCC3)[C@@H](O)[C@@H](O)CC(C)C)C(=O)[C@H]2Cc2ccccc2)cc1 (stereo partly drawn) [Example 131, 3-(3-Thiazolyl)-2-(3R-benzyl-4-N-p-toluene-sulfonyl-2-keto-piperazin-1-yl)-propionic acid Amide of 2(S)-amino-1-cyclohexyl-3(R),4(S)-dihydroxyl-6-methylheptane] | 3 nM
CCCC[C@@H](C(=O)N[C@@H](CC1CCCCC1)[C@@H](O)[C@@H](O)CC(C)C)N1CCCN(C(=O)OC(C)(C)C)[C@H](Cc2ccccc2)C1=O [Example 132, 2(S)-(3R-Benzyl-4N-tert-butyloxycarbonyl-2-keto-homopiperazin-1-yl)-hexanoic acid Amide of 2(S)-Amino-1-cyclohexyl-3(R),4(S)-dihydroxy-6-methylheptane] | 340 nM
Cc1ccc(S(=O)(=O)N2CCN(C(Cc3cscn3)C(=O)N[C@@H](CC3CCCCC3)[C@@H](O)[C@@H]3C[C@H](C)CO3)C(=O)[C@H]2Cc2ccccc2)cc1 (stereo partly drawn) [Example 140, 3-(S-Thiazolyl)-2-(3R-benzyl-4-N-p-toluene-sulfonyl-2-keto-piperazin-1-yl)-propionic acid Amide of 2(S)-(2(S)-Amino-3-cyclohexyl-1(R)-hydroxy)propyl-4(S)-methyltetrahydrofuran] | 3.4 nM
CCCCNC(=O)[C@H](C[C@H](O)[C@H](CC1CCCCC1)NC(=O)C(Cc1cscn1)N1CCN(S(=O)(=O)N2CCN(C)CC2)[C@H](Cc2ccccc2)C1=O)C(C)C (some centres unmarked) [Example 141] | 1.5 nM
CCN1CC(C(O)C(CC2CCCCC2)NC(=O)C(Cc2nccn2C(=O)OC(C)(C)C)N2CCN(S(=O)(=O)N3CCN(C)CC3)C(Cc3ccccc3)C2=O)OC1=O [Example 142, 3-(3N-tert-butyloxycarbonyl-2-imidazolyl)-2-(3R-benzyl-4-N-(N-methylpiperazyl)-sulfonyl-2-keto-piperazin-1-yl)-propoionic acid Amide of (2'S,1'R,5S)-3-Ethyl-5-(1'-hydroxy-2'-amino-3'-cyclohexylpropyl)oxazolidin-2-one] | 5 nM
CCN1C[C@@H]([C@H](O)[C@H](CC2CCCCC2)NC(=O)C(Cc2ncc[nH]2)N2CCN(S(=O)(=O)N3CCN(C)CC3)[C@H](Cc3ccccc3)C2=O)OC1=O (stereo partly drawn) [Example 143, 3-(2-imidazolyl)-2-(3R-benzyl-4-N-(N-methylpiperazyl)-sulfonyl-2-keto-piperazin-1-yl)-propionic acid Amide of (2'S,1'R,5S)-3-Ethyl-5-(1'-hydroxy-2'-amino-3'-cyclohexylpropyl)oxazolidin-2-one] | 1.7 nM
CC(C)C[C@H](O)[C@H](O)[C@H](CC1CCCCC1)NC(=O)C(Cc1nccn1C(=O)OC(C)(C)C)N1CCN(S(=O)(=O)N2CCN(C)CC2)[C@H](Cc2ccccc2)C1=O (stereo partly drawn) [Example 144, 3-(3N-tert-butyloxycarbonyl-2-imidazolyl)-2-(3R-benzyl-4N-(N-methylpiperazyl)-sulfonyl-2-keto-piperazin-1-yl)-propionic acid Amide of 2(S)-Amino-1-cyclohexyl-3(R),4(S)-dihydroxy-6-methylheptane] | 6.6 nM
CC(C)C[C@H](O)[C@H](O)[C@H](CC1CCCCC1)NC(=O)C(Cc1ncc[nH]1)N1CCN(S(=O)(=O)N2CCN(C)CC2)[C@H](Cc2ccccc2)C1=O (some centres unmarked) [Example 145] | 1.7 nM
C[C@@H]1CO[C@H]([C@H](O)[C@H](CC2CCCCC2)NC(=O)C(Cc2nccn2C(=O)OC(C)(C)C)N2CCN(S(=O)(=O)N3CCN(C)CC3)[C@H](Cc3ccccc3)C2=O)C1 (stereo partly drawn) [Example 146, 3-(3N-tert-butyloxycarbonyl-2-imidazolyl)-2-(3R-benzyl-4N-(N-methylpiperazyl)-sulfonyl-2-keto-piperazin-1-yl)-propionic acid Amide of 2(s)-(2(s)-Amino-3-cyclohexyl-1(R) hydroxy)propyl-4(S)-methyltetrahydrofuran] | 1.6 nM
CC(C)C[C@H](O)[C@H](O)[C@H](CC1CCCCC1)NC(=O)[C@H](Cc1cscn1)N1CCC[C@@](Cc2ccccc2)(NS(=O)(=O)N2CCN(C)CC2)C1=O [Example 151, (2S)-(3S)-((N-methylpiperazinsulfonyl)-amino-3-phenylmethyl-2-oxo-1-piperidinyl)-3-(4-thiazolyl) propionic acid amide of (2S.3R,4S)-2-amino-1-cyclohexyl-3,4-dihydroxy-6-methylheptane] | 0.32 nM
Cc1ccc(S(=O)(=O)N[C@]2(Cc3ccccc3)CCCN([C@@H](Cc3c[nH]cn3)C(=O)N[C@@H](CC3CCCCC3)[C@@H](O)[C@@H](O)CC(C)C)C2=O)cc1 [Example 156] | 1.4 nM
